From US20240166680A1, “NUCLEOSIDE ANALOG AND USE THEREOF” (SHANGHAI INSTITUTE OF MATERIA MEDICA, CHINESE ACADEMY OF …, priority 2021, published 2024)
Read-outs that look alike come from different tables or passages of the source.

Columns and labels:
[1] = system: respiratory syncytial virus (RSV); experiment: Inhibition of respiratory syncytial virus replication by CPE in HEp-2; type: cell-based; settings: human respiratory syncytial virus, HEp-2, read-out: RSV (HEp-2) EC50
influenza A virus (H3N2) = experiment: Inhibition of influenza virus H3N2 replication by CPE in MDCK; type: cell-based; settings: MDCK cells
[2] = Cytotoxicity in MDCK cells (no viral infection); type: cell-based; settings: dog, without viral infection, read-out: H3N2 (MDCK) CC50
Method: (§1) Determination of the inhibitory activity of compounds on the replication of respiratory syncytial virus (RSV), human coronavirus OC43, influenza A virus, and Zika virus by Cytopathogenic effect (CPE): the experimental cells were inoculated at a certain cell density to 96 well cell culture plates, and cultured overnight in a 5% CO2, 37° C. incubator. The compounds and viruses were added the next day. Depending on the tested virus, the cells were cultured in an incubator for 3-7 days under 5% CO2, 33° C. or 37° C., until 80-95% of the cells in the virus-infected control wells without compound had pathological changes. Cell viability in each well was then detected with CellTiter-Glo or CCK-8. […] The cytotoxicity test method is the same as the corresponding antiviral test method, but without viral infection.
(§2) The antiviral activity and cytotoxicity of the compound are represented by the inhibition rate (%) of the compound on the virus-induced cellular viral effect and the cell viability (%), respectively. Calculation equations are as follows:
(§3) Cell viability (%)=(reading value of test well−average value of medium control)/(average value of cell control−average value of medium control)×100;
(§4) EC50 and CC50 values were calculated by Prism software, and the inhibition curve fitting method was “log (inhibitor) vs. response—Variable slope”.

in vitro = settings: human
[3] = system: 2019 novel coronavirus (SARS-CoV-2); experiment: Inhibition of SARS-CoV-2 replication in Vero cells (qRT-PCR); type: cell-based; settings: Severe acute respiratory syndrome coronavirus 2, 48 hours, virus copy number in supernatant by qRT-PCR
[4] = Cytotoxicity in Vero cells (SARS-CoV-2 test); type: cell-based; settings: African green monkey
[5] = Cytotoxicity in Huh7 cells (no viral infection); type: cell-based; settings: human, without viral infection, read-out: HCoV OC43 (Huh7) CC50
Method: as §1, §2, §3, §4

dengue virus (DENV) = experiment: Dengue virus plaque reduction assay in Vero cells; type: cell-based; settings: read-out: DENV (Vero) Inhibition rate at 5 μM
Method: Determination of the inhibitory activity of compounds against dengue virus by plaque reduction assay: Vero cells were inoculated into 6-well cell culture plates at a density of 600,000 cells per well, and cultured overnight in a 5% CO2, 37° C. incubator. The compounds and virus (40-50 PFU/well) were added the next day. The cells were cultured in an incubator at 5% CO2 and 37° C. for 2 hours, then the supernatant was aspirated, and the low-melting point agarose culture medium containing the corresponding concentration of the compound was added. The cells were cultured in an incubator at 5% CO2, 33° C. or 37° C. for 6-7 days, until obvious virus plaques could be observed in the virus-infected control wells without compound under the microscope. Cells were fixed with 4% paraformaldehyde and stained with crystal violet. The number of plaques in each well was calculated. Cytotoxicity experiments were performed in parallel with antiviral experiments. Vero cells were inoculated into 96-well cell culture plates at a density of 20,000 cells per well, and cultured overnight in a 5% CO2, 37° C. incubator. The compounds were added the next day (1-5 concentration points, single point). The cells were cultured in an incubator at 5% CO2, 33° C. or 37° C. for 6-7 days. Cell viability in each well was then detected with CCK-8.

[6] = type: in vivo, rat; settings: SD rats; for AUC(0-t) / AUC(0-∞) / Cmax / T1/2 / Tmax: nucleoside metabolite in plasma; for F % (bioavailability): nucleoside metabolite
Method: 6 Male SD rats for each compound were divided into 2 groups (gastric administration group and intravenous injection group), 3 rats in each group. The rates were fasted for 12 h before the experiment (the intravenous experiment group was not fasted), had free access to water, and ate uniformly 4 hours after the administration. The dosages of C22 and C23 were 16 mg/kg and 20 mg/kg for intragastric administration, respectively, and the administration vehicle was 5% DMSO+5% solutol+90% saline. The intravenous injection dosages were 4 mg/kg and 5 mg/kg respectively, and the administration vehicle was DMSO/EtOH/PEG300/0.9% NaCl (5/5/40/50, v/v/v/v). 0.2 mL of blood was collected from the jugular vein 5 min, 0.25 h, 0.5 h, 1.0 h, 2.0 h, 4.0 h, 6.0 h, 8.0 h and 24 h after the administration, placed in an EDTA-K2 test tube abd centrifuged at 11,000 rpm for 5 minutes, and the plasma was separated, and stored in a −70° C. refrigerator for testing. The operation was under an ice water bath. The concentration of nucleoside metabolites in plasma was determined by LC-MS-MS, and the pharmacokinetic parameters were calculated.

[7] = type: in vivo, rat; settings: SD rats
Method: 6 Male SD rats for each compound were divided into 2 groups (gastric administration group and intravenous injection group), 3 rats in each group. The rats were fasted for 12 h before the experiment (the intravenous experiment group was not fasted), had free access to water, and ate uniformly 4 hours after the administration. […] The dosage of C38 was 10 mg/kg for intragastric administration, 2 mg/kg for intravenous injection, and the administration vehicle was DMSO/EtOH/PEG300/0.9% NaCl (5/5/40/50, v/v/v/v). 0.2 mL of blood was collected from the jugular vein at 5 min (intravenous group only), 0.25 h, 0.5 h, 1.0 h, 2.0 h, 4.0 h, 6.0 h, 8.0 h and 24 h after the administration, placed in an EDTA-K2 test tube and centrifuged at 11,000 rpm for 5 minutes, and the plasma was separated, and stored in a −70° C. refrigerator for testing. The operation was under an ice water bath. The concentration of nucleoside metabolites in plasma was determined by LC-MS-MS, and the pharmacokinetic parameters were calculated.

Zika virus = experiment: Inhibition of Zika virus replication by CPE in Huh7; type: cell-based
[8] = in monkeys; cited from earlier work
[9] = system: porcine epidemic diarrhea virus (PEDV); experiment: Inhibition of PEDV replication in Vero cells by fluorescent quantitative PCR; settings: 36 h, read-out: PEDV (Vero) EC50
[10] = nucleoside metabolite in plasma, iv 2 mg/kg
[11] = nucleoside metabolite in plasma, po 10 mg/kg

With CC(=O)OC[C@@]1(F)O[C@@H](n2ccc(=O)[nH]c2=O)[C@@H]2OC(=O)O[C@@H]21 [Compound B38] the EC50 [1] was 990 nM, the EC50 (influenza A virus (H3N2)) was 540 nM and the CC50 [2] was greater than 10000 nM. It also gave a CC50 (in vitro) greater than 10000 nM.
CCCCCCCCCCCCCCCC(=O)OC[C@@]1(F)O[C@@H](n2ccc(=O)[nH]c2=O)[C@@H]2OC(=O)O[C@@H]21 [Compound B41] gave an EC50 [1] of 460 nM, an EC50 (influenza A virus (H3N2)) of less than 500 nM and a CC50 [2] greater than 10000 nM. For the same compound, the CC50 (in vitro) was greater than 10000 nM.
N#C[C@@]1(c2ccc3c(N)ncnn23)O[C@H](CO)[C@H]2OC(=O)O[C@H]21 [Compound C21] gave an EC50 [1] of 490 nM and a CC50 (in vitro) greater than 10000 nM.
With [2H]c1cc([C@]2(C#N)O[C@H](CO)[C@@H](O)[C@H]2O)n2ncnc(N)c12 [Compound C22-0] the EC50 [3] was 460 nM, the CC50 [4] was greater than 10000 nM and the CC50 [5] was greater than 10000 nM. For the same compound, the EC50 [1] was 560 nM, the inhibition at 5 µM (dengue virus (DENV)) was 100% and the CC50 (in vitro) was greater than 10000 nM.
In the case of [2H]c1cc([C@]2(C#N)O[C@H](CO)[C@H]3OC(=O)O[C@H]32)n2ncnc(N)c12 [Compound C22], the “AUC(0-t)” value ([6]; iv 4 mg/kg) is reported as 2348 ng·h/mL, the “AUC(0-∞)” value ([6]; iv 4 mg/kg) is reported as 2398 ng·h/mL and the Cmax ([6]; iv 4 mg/kg) is reported as 2883 ng/mL. The T1/2 ([6]; iv 4 mg/kg) was 1.35 h, the “AUC(0-t)” value ([6]; po 16 mg/kg) was 7068 ng·h/mL and the “AUC(0-∞)” value ([6]; po 16 mg/kg) was 7157 ng·h/mL. It also gave a Cmax ([6]; po 16 mg/kg) of 2217 ng/mL, a T1/2 ([6]; po 16 mg/kg) of 1.08 h and a Tmax ([6]; po 16 mg/kg) of 0.5 h. For the same compound, the “F % (bioavailability)” value ([6]; po 16 mg/kg vs iv 4 mg/kg) was 75.3%.
With [2H]c1cc([C@]2(C#N)O[C@H](COC(=O)C(C)C)[C@H]3OC(=O)O[C@H]32)n2ncnc(N)c12 [Compound C23] the “AUC(0-t)” value ([6]; iv 5 mg/kg) was 3954 ng·h/mL, the “AUC(0-∞)” value ([6]; iv 5 mg/kg) was 4024 ng·h/mL and the Cmax ([6]; iv 5 mg/kg) was 3903 ng/mL. The T1/2 ([6]; iv 5 mg/kg) was 5.24 h, the “AUC(0-t)” value ([6]; po 20 mg/kg) was 11360 ng·h/mL and the “AUC(0-∞)” value ([6]; po 20 mg/kg) was 11393 ng·h/mL. It also gave a Cmax ([6]; po 20 mg/kg) of 2933 ng/mL, a T1/2 ([6]; po 20 mg/kg) of 3.47 h and a Tmax ([6]; po 20 mg/kg) of 1.0 h. For the same compound, the “F % (bioavailability)” value ([6]; po 20 mg/kg vs iv 5 mg/kg) was 71.8%.
In the case of [2H]c1cc([C@]2(C#N)O[C@H](CO)[C@H]3OC(CC)O[C@H]32)n2ncnc(N)c12 (stereo partly shown) [Compound C38], the “AUC(0-t)” value [7, 10] is reported as 551 ng·h/mL, the “AUC(0-∞)” value [7, 10] is reported as 586 ng·h/mL and the Cmax [7, 10] is reported as 217 ng/mL. For the same compound, the T1/2 [7, 10] was 1.9 h, the “AUC(0-t)” value [7, 11] was 2388 ng·h/mL and the “AUC(0-∞)” value [7, 11] was 2454 ng·h/mL. For the same compound, the Cmax [7, 11] was 586 ng/mL, the T1/2 [7, 11] was 3.1 h and the Tmax [7, 11] was 0.75 h. For the same compound, the “F % (bioavailability)” value ([7]; nucleoside metabolite, po 10 mg/kg vs iv 2 mg/kg) was 87%.
For N#C[C@@]1(c2ccc3c(N)ncnn23)O[C@H](CO)[C@@H](O)[C@H]1O [GS-441524, (2R,3R,4S,5R)-2-(4-aminopyrrolo[2,1-F][1,2,4]triazin-7-yl)-3,4-dihydroxy-5-(hydroxymethyl)tetrahydrofuran-2-carbonitrile], the EC50 [3] was 470 nM, the CC50 [4] was greater than 10000 nM and the CC50 [5] was greater than 10000 nM. It also gave an EC50 [1] of 730 nM, an EC50 (Zika virus; Huh-7, read-out: Zika (Huh7) EC50) of 15000 nM and a CC50 (in vitro) greater than 10000 nM. For the same compound, the oral bioavailability [8] was “less than 10%” and the EC50 [9] was 310 nM.
With O=c1nc(NO)ccn1[C@@H]1O[C@H](CO)[C@@H](O)[C@H]1O [NHC, β-d-N4-hydroxycytidine] the EC50 [3] was 300 nM, the CC50 [4] was greater than 10000 nM and the EC50 [1] was 4600 nM. The EC50 (influenza A virus (H3N2)) was 770 nM, the CC50 [2] was greater than 10000 nM and the inhibition at 5 µM (Zika virus; Huh-7, read-out: Zika (Huh7) Inhibition rate) was 66%. For the same compound, the inhibition at 5 µM (dengue virus (DENV)) was 40%, the CC50 (in vitro) was greater than 10000 nM and the oral bioavailability [8] was “less than 10%”. For the same compound, the EC50 [9] was 1170 nM.
